ChEMBL document CHEMBL1133300, “Natural product derived inhibitors of lipoprotein associated phospholipase A2, synthesis and activity of analogues of SB-253514” (Bioorg Med Chem Lett, 2000)

Assay: The compound was evaluated for time dependent inhibitory activity against Lipoprotein associated Phospholipase A2 (Lp-PLA2) enzyme after 10 min incubation.

| IC50 [nM] | Compound |
| --- | --- |
| 170 | CCCCCCCCCCCCNC(=O)/C=C1/OC(=O)N2CCC[C@@H]12 |
| 28 | CCCCCCCCCCCCCCNC(=O)/C=C1/OC(=O)N2CCC[C@@H]12 |
| 25 | CCCCCCCCCCCCCCCCNC(=O)/C=C1/OC(=O)N2CCC[C@@H]12 |
| 51 | CCCCCCCCCCC[C@H](CC(=O)NC(=O)/C=C1/OC(=O)N2CCCC12)O[C@@H]1O[C@@H](C)[C@H](O)[C@@H](O)[C@H]1O (stereo partly drawn) |
| 12 | CCCCCCCCCCCCCCCCNC(=O)/C=C1/OC(=O)N2CCC[C@H]12 |

Assay: The compound was evaluated for time dependent inhibitory activity against Lipoprotein associated Phospholipase A2 (Lp-PLA2) enzyme after 10 min incubation; Inactive; call rule not given here

| IC50 | Compound |
| --- | --- |
| Not Active | CCCCCCCC(=O)OCCCCC#C/C=C1/OC(=O)N2CCC[C@@H]12 |
| Not Active | O=C1O/C(=C/C#CCCCCO)[C@@H]2CCCN12 |
| Not Active | CCCCCCCCCCCCCCC#C/C=C1/OC(=O)N2CCC[C@@H]12 |
